Results on 15 compounds are retold here after publication PMC8792998 (Journal of medicinal chemistry, 2021).

Data set [1] concerns C. parvum. The experiment in a line: C. parvum-infected HCT-8 cell assay. The following applies: for fold loss of potency: Cp HCT-8 EC50, Table 1 linker SAR, comparator not given; for change of potency, in words: Cp HCT-8 assay, Table 1 linker SAR. It is filed as cell-based, Cryptosporidium parvum.
In data set [2] the test system is human Ether-a-go-go-Related Gene (hERG). As to conditions: read-out: hERG IC50; reported value; cited from earlier work.
For data set [3], the target named is T1, hERG (Homo sapiens, UniProt Q12809). The experiment in a line: hERG-CHO automated patch clamp electrophysiology. It is filed as cell-based. In general terms: hERG is a cardiac potassium channel; its block is linked to QT prolongation.
In data set [4] the target is T1, hERG. Put plainly: hERG [3H]-dofetilide competitive binding assay. The following applies: human, probe [3H]-dofetilide.
Data set [5] has as its system C. parvum. The following applies: previous work, cited from earlier work.
Data set [6] concerns C. parvum. The experiment in a line: C. parvum time-kill curve. The class given is cell-based, Cryptosporidium parvum. As to conditions: for effect on parasite numbers in time-kill assay: compound added at multiples of EC90 24 hours after infection.
For data set [7], the system named is C. parvum. Put plainly: NSG mouse model of C. parvum infection. The following applies: 50 mg/kg twice daily by oral gavage, days 7-10; fecal qPCR; n=4. Background: Quantitative PCR measures a nucleic acid by following its amplification.
In data set [8] the test system is HCT-8 cells. Put plainly: Host cell toxicity, CellTiter AQueous colorimetric assay. The class given is cell-based, human.
In data set [9] the test system is CYP1A2, CYP2B6, CYP2C8, CYP2D6, CYP3A4. The experiment in a line: CYP inhibition panel at 10 μM, remaining isoforms. The class given is in vitro ADME. The following applies: human.
Data set [10] is described as follows: Mouse PK study, plasma and jejunum. It is filed as in vivo, CD-1 mice. The following applies: male, CD-1, mouse, iv, 1 mg/kg.
Data set [11] deals with human p-glycoprotein (Pgp) multi-drug resistance (MDR) transporter (Homo sapiens, UniProt P08183). The experiment in a line: MDR1 transporter assay. The following applies: 10 μM, 2 hours. It is filed as in vitro ADME.
Data set [12] addresses human potassium channel hERG (Homo sapiens, UniProt Q12809). Put plainly: hERG [3H]-dofetilide competitive binding assay. As to conditions: 10 μM; inhibition of [3H]-dofetilide binding.

Broadly, the IC50 is the concentration that inhibits the measured activity by half. The term inhibition denotes the change of the read-out against control, counted positive when it falls. Read a high inhibition as strong suppression. A word on the clearance: it is the volume of plasma or blood freed of the substance per unit of time. A low value points to inefficient removal. Usually EC50 stands for the concentration giving half of the maximal effect.

Some results are limits rather than exact numbers.

T1 sequence (Q12809 whole entry): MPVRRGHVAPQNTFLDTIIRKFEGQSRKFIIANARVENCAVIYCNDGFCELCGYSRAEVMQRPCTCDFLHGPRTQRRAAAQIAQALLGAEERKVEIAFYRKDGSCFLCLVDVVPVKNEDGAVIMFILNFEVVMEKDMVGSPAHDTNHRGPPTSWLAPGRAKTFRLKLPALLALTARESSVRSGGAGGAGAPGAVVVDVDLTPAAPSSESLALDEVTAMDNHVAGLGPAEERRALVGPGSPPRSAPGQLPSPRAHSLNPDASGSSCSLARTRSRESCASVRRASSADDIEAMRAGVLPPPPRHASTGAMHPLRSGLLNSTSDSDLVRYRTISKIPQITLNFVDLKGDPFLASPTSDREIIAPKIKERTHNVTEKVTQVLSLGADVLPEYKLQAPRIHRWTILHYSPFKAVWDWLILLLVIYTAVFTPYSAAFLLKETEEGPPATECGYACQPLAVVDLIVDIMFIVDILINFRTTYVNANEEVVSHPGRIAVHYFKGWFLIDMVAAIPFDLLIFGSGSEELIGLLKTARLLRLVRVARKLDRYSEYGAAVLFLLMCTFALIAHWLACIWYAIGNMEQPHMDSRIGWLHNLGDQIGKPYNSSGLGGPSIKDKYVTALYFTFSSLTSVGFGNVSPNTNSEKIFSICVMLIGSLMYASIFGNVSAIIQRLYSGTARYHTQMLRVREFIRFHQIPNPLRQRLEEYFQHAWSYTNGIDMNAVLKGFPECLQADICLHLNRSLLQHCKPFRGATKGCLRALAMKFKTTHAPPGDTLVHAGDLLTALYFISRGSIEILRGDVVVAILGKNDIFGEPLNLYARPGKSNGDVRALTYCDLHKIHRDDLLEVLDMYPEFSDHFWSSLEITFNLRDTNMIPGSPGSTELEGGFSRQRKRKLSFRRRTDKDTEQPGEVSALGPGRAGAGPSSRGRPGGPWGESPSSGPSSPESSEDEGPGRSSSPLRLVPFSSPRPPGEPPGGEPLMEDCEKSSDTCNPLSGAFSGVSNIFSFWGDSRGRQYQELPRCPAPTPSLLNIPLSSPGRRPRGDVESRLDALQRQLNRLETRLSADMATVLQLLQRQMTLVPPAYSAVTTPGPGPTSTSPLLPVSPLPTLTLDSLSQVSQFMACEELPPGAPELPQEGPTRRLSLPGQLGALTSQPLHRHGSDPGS
human potassium channel hERG, sequence (Q12809 whole entry): as above

Turning to “2-(3,4-dichlorophenyl)-1-(2-methyl-4-{[1,2,4]triazolo[4,3-b]pyridazin-6-yl}piperazin-1-yl)ethan-1-one [Compound 10c]”, the “fold loss of potency” value in data set [1] is on record as greater than 50 fold.

With `O=C(Nc1ccc(Cl)cc1)N1CCN(c2ccc3nncn3n2)CC1` [Compound 1, reference compound], the IC50 in data set [2] and in data set [3] was roughly 10 µM throughout. In data set [3] (safety margin), the “hERG IC50 versus Cp EC90(free) ratio” value was ~ 4 fold.

Take `O=C(Nc1ccc(Cl)c(Cl)c1)N1CCN(c2ccc3nncn3n2)CC1` [Compound 2, 4-([1,2,4]triazolo[4,3-b]pyridazin-6-yl)-N-(3,4-dichlorophenyl)piperazine-1-carboxamide]: the inhibition at 10 µM in [4] was roughly 50%. Moreover, the “fold more potent than MMV665917” value in data set [5] was “about 4 fold”. Further, the “effect on parasite numbers in time-kill assay” value in data set [6] is “parasite numbers declined exponentially”. The compound also came in with an inhibition at 1 µM in data set [3] (human, CHO cells that express hERG) greater than 40%.

Regarding `O=C(Nc1ccc(Cl)c(Cl)c1)N1CCCN(c2ccc3nncn3n2)CC1` [Compound 10b, N-(3,4-dichlorophenyl)-4-{[1,2,4]triazolo[4,3-b]pyridazin-6-yl}-1,4-diazepane-1-carboxamide], the “fold loss of potency” value in data set [1] is on record as greater than 50 fold.

For the compound `CN(C(=O)N1CCN(c2ccc3nncn3n2)CC1)c1ccc(Cl)c(Cl)c1` [Compound 11, N-(3,4-dichlorophenyl)-N-methyl-4-{[1,2,4]triazolo[4,3-b]pyridazin-6-yl}piperazine-1-carboxamide], the “change of potency, in words” value in data set [1] is given as “dramatic loss of potency”.

As to `O=C(Cc1ccc(Cl)c(Cl)c1)N1CCN(c2ccc3nncn3n2)CC1` [Compound 12a, 2-(3,4-Dichlorophenyl)-1-(4-{[1,2,4]triazolo[4,3-b]pyridazin-6-yl}piperazin-1-yl)ethan-1-one], the “mice with no parasites detected ten days after completing treatment” value in [7] is 3 of 4 and three of the four. Moreover, the “cytotoxicity in HCT-8 cells, in words” value in data set [8] is recorded as “non-cytotoxic in HCT-8 cells”. The compound further showed an inhibition at 10 µM in data set [9] of no more than 10%. The clearance in [10] (jejunum) is 0.7 mL/min/kg. Further, in data set [10] (plasma), the clearance at 6 h is 0.317 mL/min/kg. For the same compound, in data set [6] (based on estimated decay rate, at six times the EC90), the “time of exposure to eliminate 99.9% of parasites” value was no more than 98 h. The compound further returned an IC50 in data set [3] of roughly 8 µM. Moreover, in data set [3] (safety margin), the “hERG margin using EC50, not corrected for plasma protein binding” value is reported as greater than 40 fold.

On to `O=C(c1ccc(Cl)c(Cl)c1)N1CCN(c2ccc3nncn3n2)CC1` [Compound 12b, 1-(3,4-dichlorobenzoyl)-4-{[1,2,4]triazolo[4,3-b]pyridazin-6-yl}piperazine], for which, in [1] (Cp HCT-8 EC50), the “fold loss of potency relative to 12a” value is recorded as greater than 100 fold.

On to `O=C(Cc1ccc(Cl)c(Cl)c1)N1CCCN(c2ccc3nncn3n2)CC1` [Compound 12c, 2-(3,4-dichlorophenyl)-1-(4-{[1,2,4]triazolo[4,3-b]pyridazin-6-yl}-1,4-diazepan-1-yl)ethan-1-one], for which the “fold loss of potency” value in data set [1] is recorded as greater than 50 fold.

Turning to `CC1CN(c2ccc3nncn3n2)CCN1C(=O)Cc1ccc(Cl)c(Cl)c1` (stereo not shown) [Compound 12d, 2-(3,4-dichlorophenyl)-1-(2-methyl-4-{[1,2,4]triazolo[4,3-b]pyridazin-6-yl}piperazin-1-yl)ethan-1-one], the “fold loss of potency” value in [1] is greater than 50 fold.

Regarding `O=S(=O)(Cc1ccc(Cl)c(Cl)c1)N1CCN(c2ccc3nncn3n2)CC1` [Compound 13, 1-[(3,4-dichlorophenyl)methanesulfonyl]-4-{[1,2,4]triazolo[4,3-b]pyridazin-6-yl}piperazine], the “change of potency, in words” value in [1] is recorded as “dramatic loss of potency”.

`O=C(Cc1ccc(F)cc1)N1CCN(c2ccc3nncn3n2)CC1` [Compound 29h, 2-(4-fluorophenyl)-1-(4-{[1,2,4]triazolo[4,3-b]pyridazin-6-yl}piperazin-1-yl)ethan-1-one]: the “fold more potent than H (entry 1, 29a)” value in [1] (Cp HCT-8 EC50, Table 2) worked out at 18 fold.

As for `O=C(Cc1ccc(Cl)cc1)N1CCN(c2ccc3nncn3n2)CC1` [Compound 29i, 2-(4-chlorophenyl)-1-(4-{[1,2,4]triazolo[4,3-b]pyridazin-6-yl}piperazin-1-yl)ethan-1-one], the “fold more potent than H (entry 1, 29a)” value in [1] (Cp HCT-8 EC50, Table 2) is reported as 25 fold.

Take `O=C(Cc1cccc(Cl)c1)N1CCN(c2ccc3nncn3n2)CC1` [Compound 29j, 2-(3-chlorophenyl)-1-(4-{[1,2,4]triazolo[4,3-b]pyridazin-6-yl}piperazin-1-yl)ethan-1-one]: in data set [1] (Cp HCT-8 EC50, Table 2), the “fold less potent than chlorine in the 4-position” value is 4 fold.

For `CC(=O)Oc1ccccc1C(=O)Nc1ncc([N+](=O)[O-])s1` [NTZ, nitazoxanide, reference compound], the EC50 in data set [5] (read-out: EC50, parasite growth in vitro) was 3.8 µM. Moreover, the “host cell cytotoxicity in time-kill assay” value in data set [6] (HCT-8 cultures) is given as “cytotoxic at concentrations above the EC90”. For the same compound, the “effect on parasite numbers in time-kill assay” value in data set [6] is listed as “blocked C. parvum growth without eliminating the parasite from HCT-8 cultures”.

Consider “N-(3,4-dichlorophenyl)-4-{[1,2,4]triazolo[4,3-b]pyridazin-6-yl}cyclohex-3-ene-1-carboxamide [Compound 18a]”, for which, in data set [11], the “MDCK-MDR Efflux Ratio” value stood at 6.5. For the same compound, the “change of potency, in words” value in data set [1] is listed as “equipotent to its N-linked counterpart 2”. Further, the “hERG binding, %inh” value in data set [12] worked out at 56%.
